According to patent US8980899B2, “Methods of inhibiting Ire1” (The Regents of the University of California, priority 2009, dated 2015):

What was measured:
[1] = test system: Ire1 (XBP-1 YFP reporter in IMR90 cells); assay: Cell-based IRE1 inhibition assay with human fibroblasts (IMR90), XBP-1 YFP reporter; settings: compound 2 uM, 8 hrs
Description: FIG. 6 depicts histogram results of cell-based Ire1 inhibition assay employing IMR90 human diploid fibroblastic cell line. […] Induction of XBP-1 YFP reporter was assayed by fluorescence microscopy. See Example 6. Test compounds (left to right): DMSO; Tg; bortezomib; MG132; Irestatin; AD71c; AD73c; AD58; AD59. Ordinate: relative fluorescence (proportional to Ire1 activity.)
A cell-based assay of Ire1 inhibition was conducted on human diploid fibroblastic cells (IMR90) expressing an XBP-1 YFP (yellow fluorescent protein) reporter. The effect of test compound or control on UPR induction was assayed by fluorescence microscopy to measure the fluorescence of YFP expressed in a Ire1-dependent manner. The XBP1-YFP reporter only produces YFP after a frameshift produced by splicing of its intron by activated IRE1. As known in the art, higher fluorescence intensity means higher Ire1 and UPR activity. Conversely, lower fluorescence intensity means inhibitions of Ire1 and UPR.
IMR90 stable retroviral transductants expressing an XBP-1 YTP reporter were plated in a 96 well clear bottom plate and allowed to recover overnight (80% confluency). […] Induction of the XBP1-YFP reported was assayed by fluorescence microscopy (GE Healthcare IN Cell Analyzer 2000). The number of YFP cells and the total number of cells, as judged by nuclear staining (Hoechst) were counted in each well. […]

[2] = target: Recombinant human Ire1-alpha (Homo sapiens, UniProt O75460); assay: In vitro inhibition assay, cleavage of 32P-stem-loop RNA by human Ire1; type: biochemical; settings: in vitro cleavage of 32P-stem-loop RNA by human Ire1, AD series; Control (no inhibitor) 8.8310e−3
Description: Recombinant human […]) was mixed with reaction buffer, inhibitor solution in DMSO, and ^32P-labeled RNA substrate having sequence 5'-[…] NO:1). Reactions were conducted at 30° C. and initiated by adding the RNA to reaction pre-mix containing all the components minus the RNA. […] (The reaction mixture may be modified by using different components or concentrations, different RNA substrate, or different Ire1 protein construct.) At time intervals (0 seconds, 10 seconds, 30 seconds, and 3 minutes), 1 μl aliquots of reaction mixture were taken and quenched in 10 M Urea, 0.1% SDS. Samples were analyzed by denaturing polyacrylamide gel electrophoresis and quantified using Typhoon phosphorImager. […] Reactions with Irestatin and exemplary compounds were conducted analogously. Irestatin was a gift obtained from the SPECS screen available as 5 mM solution in DMSO at UCSF small molecule discovery center.

hIre1 = hIre1 (Homo sapiens, UniProt O75460); assay: Titrations of Ire1 inhibitors to measure Ki using 1 μM hIre1; type: biochemical; settings: 1 μM hIre1, 5′-32p-HP21, 30° C.
Description: Recombinant human Ire1-alpha (1 μM f/c) was mixed with reaction buffer, inhibitor solution in DMSO, and ^32P-labeled RNA substrate having sequence 5′-UGCACCUCUGCAGCAGGUGCA (SEQ ID NO:1). Reactions were conducted at 30° C. and initiated by adding the RNA to reaction pre-mix containing all the components minus the RNA. The final reaction contained: 20 mM HEPES pH 7, 70 mM NaCl, 2 mM MgCl2, 5% glycerol, 4 mM DTT, 10% DMSO, 1 μM Ire1 and <1 nM 32P-labeled RNA. (The reaction mixture may be modified by using different components or concentrations, different RNA substrate, or different Ire1 protein construct.)
At time intervals (0 seconds, ˜10 seconds, ˜30 seconds, and ˜3 minutes), 1 μl aliquots of reaction mixture were taken and quenched in 10 M Urea, 0.1% SDS. Samples were analyzed by denaturing polyacrylamide gel electrophoresis and quantified using Typhoon phosphorImager.
Inhibition was measured by the extent of RNA cleavage slowdown in the presence of inhibitor (0.3-100 μM) compared to reaction containing no inhibitors.

yIre1 = target: T1, yIre1 (Saccharomyces cerevisiae, UniProt P32361); assay: RNase cleavage assay (yIre1 activation); type: biochemical, yeast; settings: yIre1 RNA cleavage, 30° C., 2 mM ADP; Control (no inhibitor) 0.000504
T1 sequence (P32361 19-1115): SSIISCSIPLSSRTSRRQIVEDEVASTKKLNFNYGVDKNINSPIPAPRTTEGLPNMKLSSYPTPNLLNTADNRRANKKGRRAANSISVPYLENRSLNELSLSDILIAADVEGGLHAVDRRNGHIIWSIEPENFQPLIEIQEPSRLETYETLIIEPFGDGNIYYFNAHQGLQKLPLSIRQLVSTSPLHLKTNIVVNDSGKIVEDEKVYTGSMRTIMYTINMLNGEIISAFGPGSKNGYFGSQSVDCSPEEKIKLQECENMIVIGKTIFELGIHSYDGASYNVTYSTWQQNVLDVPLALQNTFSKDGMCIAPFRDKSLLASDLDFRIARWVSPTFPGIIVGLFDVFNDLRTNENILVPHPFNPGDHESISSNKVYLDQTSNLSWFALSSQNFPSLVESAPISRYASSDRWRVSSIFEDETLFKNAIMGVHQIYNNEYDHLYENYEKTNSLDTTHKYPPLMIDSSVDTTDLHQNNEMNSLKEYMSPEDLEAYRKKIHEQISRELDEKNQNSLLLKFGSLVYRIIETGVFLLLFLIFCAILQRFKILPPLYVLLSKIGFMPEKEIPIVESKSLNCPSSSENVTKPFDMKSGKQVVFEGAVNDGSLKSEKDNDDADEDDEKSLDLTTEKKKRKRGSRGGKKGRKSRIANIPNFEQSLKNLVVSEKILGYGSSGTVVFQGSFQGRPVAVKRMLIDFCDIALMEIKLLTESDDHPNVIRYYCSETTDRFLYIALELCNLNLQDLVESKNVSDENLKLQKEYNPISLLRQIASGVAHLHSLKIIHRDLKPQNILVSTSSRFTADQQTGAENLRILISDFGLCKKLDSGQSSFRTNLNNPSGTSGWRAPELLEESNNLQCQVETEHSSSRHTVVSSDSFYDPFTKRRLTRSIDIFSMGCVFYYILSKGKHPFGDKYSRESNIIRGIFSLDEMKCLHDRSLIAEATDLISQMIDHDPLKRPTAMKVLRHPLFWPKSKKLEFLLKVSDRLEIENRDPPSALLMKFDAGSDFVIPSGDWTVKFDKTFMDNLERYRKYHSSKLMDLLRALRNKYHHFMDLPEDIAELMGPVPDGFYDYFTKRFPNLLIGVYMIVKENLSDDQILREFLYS
Description: RNA cleavage reactions were conducted at 30° C. in buffer containing 20 mM HEPES (pH 7.5), 70 mM NaCl, 2 mM ADP (pH 7.0), 2 mM Mg(OAc)2, 5 mM DTT, 5% glycerol, less than 1 nM ^32p-labeled RNA substrate, and 3 nM-[…] Ire1. Reaction solutions and buffers were designed using Biochem Lab Solutions 3.5. Reactions were prepared such that 1 μl of RNA was added to 9 μl of pre-warmed reaction mixture containing all components except RNA. Typically, 3-10 minute time courses were collected starting from 5 seconds for the first time point. At time intervals, 1 μl of solution was withdrawn from each reaction and mixed with 6 μl stop solution containing 10 M urea, 0.1% SDS, 0.1 mM EDTA, 0.05% xylene cyanol, and 0.05% bromophenol blue. The samples were separated by a denaturing 10% PAGE and exposed on a phosphor storage screen. The screens were scanned on a Storm or a Typhoon instrument and quantified using ImageQuant 5.0 or GelQuant.NET 1.4 programs. The data were plotted and fit in SigmaPlot 6.0.

[3] = test system: Ire1 (XBP-1 luciferase reporter in MEFS); assay: Cell-based IRE1 inhibition assay with mouse embryonic fibroblasts, XBP-1 luciferase reporter; settings: compound 5 uM, 8 hrs
Description: FIG. 5 depicts histogram results of cell-based Ire1 inhibition assay in mouse embryonic fibroblasts (MEFS). Primary MEFS isolated from a transgenic mouse expressing an XBP1 luciferase reporter were incubated with either thapsigargin (Tg) or tunicamycin (Tm) in the absence or presence of test compound or control. See Example 5. Treatment order in histogram (left to right): no compound, AD73c at 5 uM, mitoxan (10 uM). Incubation conditions (left to right): DMSO, Tg (600 nM), Tm (2.6 ug/mL). Legend: RL: relative luminosity (arbitrary units); DMSO (no fill); Tg (diagonal stripe); Mitoxan (diamond fill).
A cell-based assay of Ire1 inhibition was conducted on mouse embryonic fibroblasts (MEFS) isolated from a transgenic mouse expressing an XBP-1 luciferase reporter (Riken Research, Japan). The XBP-1 luciferase reporter produces a frameshift and production of luciferase only after splicing of the intron by activated IRE1. […]
Primary MEFs expressing an XBP1 luciferase reporter were plated in a 96 well white plate and allowed to recover overnight (80% confluency). […] Luciferase activity was measured by the additional of 50 uL of One-Glo™ Luciferase Assay System (Promega), and the relative luminescence was quantitated using a luminometer (Analyst).
As depicted in the histogram of FIG. 5, the luminescence of luciferase expressed in Ire1-dependent assay was measured to assess Ire1 and UPR activity. […]

Chain of Recombinant human Ire1-alpha (O75460 19-977): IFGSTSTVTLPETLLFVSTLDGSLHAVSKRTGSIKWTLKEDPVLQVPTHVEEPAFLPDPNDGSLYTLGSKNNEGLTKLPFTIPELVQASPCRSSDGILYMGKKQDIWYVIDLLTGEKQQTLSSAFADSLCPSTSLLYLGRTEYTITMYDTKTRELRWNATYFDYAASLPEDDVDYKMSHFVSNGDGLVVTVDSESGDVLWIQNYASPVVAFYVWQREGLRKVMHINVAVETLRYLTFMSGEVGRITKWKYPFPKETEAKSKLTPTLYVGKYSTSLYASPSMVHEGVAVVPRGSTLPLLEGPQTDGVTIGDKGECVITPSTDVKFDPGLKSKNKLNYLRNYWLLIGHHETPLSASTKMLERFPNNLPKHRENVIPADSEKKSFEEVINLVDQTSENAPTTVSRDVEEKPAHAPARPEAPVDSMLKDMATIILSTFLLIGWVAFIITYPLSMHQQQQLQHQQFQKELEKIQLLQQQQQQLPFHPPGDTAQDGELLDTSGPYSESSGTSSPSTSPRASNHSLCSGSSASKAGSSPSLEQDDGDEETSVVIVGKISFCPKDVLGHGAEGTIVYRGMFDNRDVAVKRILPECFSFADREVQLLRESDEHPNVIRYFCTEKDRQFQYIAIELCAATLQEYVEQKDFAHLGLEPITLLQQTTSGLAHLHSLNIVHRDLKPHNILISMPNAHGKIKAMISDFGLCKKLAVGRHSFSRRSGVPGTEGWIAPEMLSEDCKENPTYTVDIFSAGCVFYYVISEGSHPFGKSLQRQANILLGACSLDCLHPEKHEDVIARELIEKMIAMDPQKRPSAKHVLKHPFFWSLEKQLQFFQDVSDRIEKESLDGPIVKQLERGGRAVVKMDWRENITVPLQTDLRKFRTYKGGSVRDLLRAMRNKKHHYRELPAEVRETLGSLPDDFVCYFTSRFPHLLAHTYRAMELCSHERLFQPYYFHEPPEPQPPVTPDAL
Chain of hIre1 (O75460 19-977): as above

CC(C)n1nc(-c2ccc(NC(=O)Nc3ccccc3)cc2)c2c(N)ncnc21 [AD58]
inhibition of UPR (XBP-1 YFP reporter) induced by Tg [1]: inhibit UPR

Cn1nc(-c2ccc(NC(=O)Nc3cccc(C(F)(F)F)c3)cc2)c2c(N)ncnc21 [AD59, 1-(4-(4-amino-1-methyl-1H-pyrazolo[3,4-d]pyrimidin-3-yl)phenyl)-3-(3-(trifluoromethyl)phenyl)urea]
Ire1 activity [2]: 3.0550e−3
Ki (hIre1): ~1000 nM
Ire1 activity (yIre1): 0.0001
inhibition of UPR (XBP-1 YFP reporter) induced by Tg [1]: even more strongly

Nc1ncnc2c1c(-c1ccc(NC(=O)Nc3cccc(C(F)(F)F)c3)cc1)nn2[C@@H]1CCN(C(=O)Nc2cccc(C(F)(F)F)c2)C1 [AD73c]
Ire1 activity [2]: 2.9310e−4
rate suppression (hIre1): 100 fold
inhibition of XBP1 luciferase induction by thapsigargin (Tg) ([3]; Tg 600 nM): strongly inhibit
inhibition of XBP1 luciferase induction by tunicamycin (Tm) ([3]; Tm 2.5 ug/mL): strongly inhibit
